Here are results for one molecule from publication PMC9127739, “Hololectin Interdomain Linker Determines Asparaginyl Endopeptidase-Mediated Maturation of Antifungal Hevein-Like Peptides in Oats” (Frontiers in Plant Science, 2022).

Data set [1] concerns Curvularia lunata (CICC 40301). In words: Anti-fungal microbroth dilution assay. Type of data set: cell-based. The following applies: 1 × 10^5 cells/mL spores in half-strength potato dextrose broth, 25°C, 24 h, crystal violet, absorbance 570 nm, read-out: IC50 against C. lunata. As for the experimental part:
(§1) Four phyto-pathogenic fungal strains from the China Center of Industrial Culture Collection (Beijing, China) were used to examine the anti-fungal activity of avenatide aV1: Alternaria alternata (CICC 2465), Curvularia lunata (CICC 40301), Fusarium oxysporum (CICC 2532), and Rhizoctonia solani (CICC 40259). Fungal strains were grown on potato dextrose agar plates at 25°C.
(§2) The half maximal inhibitory concentration levels (IC50) of avenatide aV1 were determined using a microbroth dilution assay ([Loo et al., 2021b]). Fungal spores were harvested from a 4-day old, actively growing fungal plate and suspended in half-strength potato dextrose broth. In the 96-well microplate, 1 × 10^5 cells/mL of spore suspension was mixed with peptides at varying concentrations and incubated at 25°C for 24 h. The cells were then fixed with 100% methanol for 15 min. Staining was done for 45 min with crystal violet dye. MilliQ water was used to remove excess dye. Elution was performed using 1:1 (v/v) ethanol/0.1 N HCl. Absorbance was measured at 570 nm.

For data set [2], the system named is Fusarium oxysporum (CICC 2532). In words: Anti-fungal microbroth dilution assay. Type of data set: cell-based. The following applies: 1 × 10^5 cells/mL spores in half-strength potato dextrose broth, 25°C, 24 h, crystal violet, absorbance 570 nm, read-out: IC50 against F. oxysporum. How it is done: as §1, §2
(Broth dilution looks for growth in wells or tubes with falling amounts of substance.)

The test system of data set [3] is trypsin. In words: Peptide stability assay, trypsin (endopeptidase). Type of data set: in vitro ADME. The following applies: recommended buffer, RP-HPLC, n = 3. How it is done: (§3) Purified avenatides aV1 and S-alkylated aV1 were incubated under the stated conditions and recommended buffer solution. At each time interval, aliquots of samples were taken and RP-UPLC was performed in triplicate.

In data set [4] the test system is carboxypeptidase A. The experiment in a line: Exoproteolytic enzyme stability assay, carboxypeptidase A. Type of data set: in vitro ADME. The following applies: carboxypeptidase A (isolated exopeptidase); 200 μM peptide, 100 nM carboxypeptidase A, 50 mM Tris-HCl, 100 mM sodium chloride, 37°C, 4 h (time-points 0 and 6 h); quenched with 1 M HCl; RP-UPLC; n = 3; read-out: Peptide retained after carboxypeptidase A treatment. How it is done: as §3
Purified avenatide aV1 (200 μM) were added to 50 mM Tris-HCl, 100 mM sodium chloride with 100 nM carboxypeptidase A or 20 mM tricine and 0.05% bovine serum albumin (pH 8.0) with 20 U/mL aminopeptidase I. The mixture was incubated in a 37°C water bath for 4 h. At each time-point ([…]), 20 μL of the treated sample was aliquoted and quenched with 5 μL 1 M hydrochloric acid. RP-UPLC was performed to determine the amounts of avenatide aV1 present before and after treatment.

Structures are written as SMILES. Where a SMILES comes first, the peptide text is derived from it. Bridges are numbered along the chain shown (N, C = ends).

By IC50 is commonly meant the midpoint of a concentration-inhibition curve. Take `CC(C)C[C@@H]1NC(=O)CNC(=O)[C@@H]2CSSC[C@@H]3NC(=O)[C@@H]4CCCN4C(=O)[C@H](CO)NC(=O)[C@H](CO)NC(=O)[C@H](CO)NC(=O)[C@H](CO)NC(=O)[C@@H](NC(=O)[C@H](C)N)CSSC[C@H](NC(=O)[C@H](CSSC[C@@H](C(=O)NCC(=O)N[C@@H](CO)C(=O)NCC(=O)N[C@H]4CSSC[C@@H](C(=O)N[C@H](C(=O)NCC(=O)N[C@@H](C)C(=O)O)[C@@H](C)O)NC(=O)[C@@H]5CCCN5C(=O)CNC(=O)[C@H](CO)NC(=O)[C@H](CCC(N)=O)NC4=O)NC(=O)[C@H](Cc4ccc(O)cc4)NC(=O)[C@H](CC(=O)O)NC(=O)CNC(=O)CNC1=O)NC(=O)[C@H](CCC(N)=O)NC(=O)[C@H](CC(N)=O)NC(=O)CNC(=O)[C@@H]1CCCN1C3=O)C(=O)N[C@@H](CO)C(=O)N[C@@H](CCCCN)C(=O)N[C@@H](Cc1c[nH]c3ccccc13)C(=O)NCC(=O)N[C@@H](Cc1ccc(O)cc1)C(=O)N2` [avenatide aV1] (H-ACSSSSPCPGNQCCSKWGYCGLGGDYCGSGCQSGPCTGA-OH; disulfide 2-14, 8-20, 13-27, 31-36): the IC50 stood at 74 µM in data set [1] and 53 µM in data set [2]. The “Peptide retained after trypsin treatment” value in data set [3] is greater than 80%. Also, the remaining at 4 h, 200 μM in data set [4] is greater than 80%.
